Experimental data: PubChem BioAssay AID1963435 (Molecular Pharmacology Branch, DTP, NCI, 2024)

Tested on: PANC-1 complex spheroid growth, percent test/control
Assay: Anticancer human tumor PANC-1 cell line growth inhibition [Asc];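 further: spheroids exposed to agents for 7 days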;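 on viability, T/C: percent viability relative to DMSO vehicle wells taken as 100%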
Settings: for IC50: curve of first compound; for viability, T/C: stronger effect = lower value; active means viability on the fitted dose curve at most 10% of control; inactive means the rest
Procedure, shortened: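 Concentration series start at each agent's clinical Cmax, or at 10 microM when none is established, and drop in half-log steps; agents are applied alone or together to complex spheroids built with HUVEC and hMSC.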

C=C(F)C(=O)N1CCN(c2nc(OCC3CCCN3C)nc3c2CCN(c2cccc4cccc(Cl)c24)C3)CC1CC#N (centres undefined) + Cc1c(S(C)(=O)=O)c(-c2cc(F)cc(N3CCN(c4ccc(NS(=O)(=O)c5ccc(NC(CCN6CCC(C(=O)OCCCP(=O)(O)O)CC6)CSc6ccccc6)c(S(=O)(=O)C(F)(F)F)c5)cc4)CC3)c2)c(-c2ccc(Cl)cc2)n1C(C)C
5 µM: IC50 (second compound 3.16 µM)
5.43 µM: IC50 (second compound 0.316 µM)
5.83 µM: IC50 (second compound 0.0316 µM) | IC50 (second compound 0.1 µM)
inactive: viability, T/C (second compound 0.0316 µM, first compound 0.0316 µM) 94.6% | viability, T/C (second compound 0.0316 µM, first compound 0.1 µM) 95.8% | viability, T/C (second compound 0.0316 µM, first compound 0.316 µM) 106% | viability, T/C (second compound 0.0316 µM, first compound 1 µM) 100% | viability, T/C (second compound 0.0316 µM, first compound 3.16 µM) 92.4% | viability, T/C (second compound 0.0316 µM, first compound 10 µM) 12.5% | viability, T/C (second compound 0.1 µM, first compound 0.0316 µM) 97.4% | viability, T/C (second compound 0.1 µM, first compound 0.1 µM) 87.6% | viability, T/C (second compound 0.1 µM, first compound 0.316 µM) 113% | viability, T/C (second compound 0.1 µM, first compound 1 µM) 103% | viability, T/C (second compound 0.1 µM, first compound 3.16 µM) 98% | viability, T/C (second compound 0.316 µM, first compound 0.0316 µM) 101% | viability, T/C (second compound 0.316 µM, first compound 0.1 µM) 101% | viability, T/C (second compound 0.316 µM, first compound 0.316 µM) 109% | viability, T/C (second compound 0.316 µM, first compound 1 µM) 103% | viability, T/C (second compound 0.316 µM, first compound 3.16 µM) 91.3% | viability, T/C (second compound 1 µM, first compound 0.0316 µM) 97.8% | viability, T/C (second compound 1 µM, first compound 0.1 µM) 98.2% | viability, T/C (second compound 1 µM, first compound 0.316 µM) 117% | viability, T/C (second compound 1 µM, first compound 1 µM) 107% | viability, T/C (second compound 1 µM, first compound 3.16 µM) 88.1% | viability, T/C (second compound 3.16 µM, first compound 0.0316 µM) 104% | viability, T/C (second compound 3.16 µM, first compound 0.1 µM) 113% | viability, T/C (second compound 3.16 µM, first compound 0.316 µM) 114% | viability, T/C (second compound 3.16 µM, first compound 1 µM) 114% | viability, T/C (second compound 3.16 µM, first compound 3.16 µM) 80% | viability, T/C (second compound 10 µM, first compound 0.0316 µM) 181% | viability, T/C (second compound 10 µM, first compound 0.1 µM) 180% | viability, T/C (second compound 10 µM, first compound 0.316 µM) 189% | viability, T/C (second compound 10 µM, first compound 1 µM) 194% | viability, T/C (second compound 10 µM, first compound 3.16 µM) 108%
5.88 µM: IC50 (second compound 10 µM)
5.24 µM: IC50 (second compound 1 µM)
active: viability, T/C (second compound 0.1 µM, first compound 10 µM) 7.53% | viability, T/C (second compound 0.316 µM, first compound 10 µM) 3.26% | viability, T/C (second compound 1 µM, first compound 10 µM) 1.2% | viability, T/C (second compound 3.16 µM, first compound 10 µM) 4.62% | viability, T/C (second compound 10 µM, first compound 10 µM) 0.69%

O=C(c1cc(Cc2n[nH]c(=O)c3ccccc23)ccc1F)N1CCN(C(=O)C2CC2)CC1 + CCN1C(C(=O)NC23CCC(C(=O)O)(CC2)CC3)C(c2cccc(Cl)c2F)C2(C(=O)Nc3cc(Cl)ccc32)C12CCCCC2
inactive: viability, T/C (second compound 0.00949 µM, first compound 0.0316 µM) 88.1% | viability, T/C (second compound 0.00949 µM, first compound 0.1 µM) 93.6% | viability, T/C (second compound 0.00949 µM, first compound 0.316 µM) 96.2% | viability, T/C (second compound 0.00949 µM, first compound 1 µM) 93.6% | viability, T/C (second compound 0.00949 µM, first compound 3.16 µM) 114% | viability, T/C (second compound 0.00949 µM, first compound 10 µM) 104% | viability, T/C (second compound 0.03 µM, first compound 0.0316 µM) 103% | viability, T/C (second compound 0.03 µM, first compound 0.1 µM) 98.7% | viability, T/C (second compound 0.03 µM, first compound 0.316 µM) 102% | viability, T/C (second compound 0.03 µM, first compound 1 µM) 99.4% | viability, T/C (second compound 0.03 µM, first compound 3.16 µM) 102% | viability, T/C (second compound 0.03 µM, first compound 10 µM) 97.2% | viability, T/C (second compound 0.0949 µM, first compound 0.0316 µM) 100% | viability, T/C (second compound 0.0949 µM, first compound 0.1 µM) 94.9% | viability, T/C (second compound 0.0949 µM, first compound 0.316 µM) 99.5% | viability, T/C (second compound 0.0949 µM, first compound 1 µM) 104% | viability, T/C (second compound 0.0949 µM, first compound 3.16 µM) 102% | viability, T/C (second compound 0.0949 µM, first compound 10 µM) 93.9% | viability, T/C (second compound 0.3 µM, first compound 0.0316 µM) 104% | viability, T/C (second compound 0.3 µM, first compound 0.1 µM) 97.9% | viability, T/C (second compound 0.3 µM, first compound 0.316 µM) 111% | viability, T/C (second compound 0.3 µM, first compound 1 µM) 103% | viability, T/C (second compound 0.3 µM, first compound 3.16 µM) 105% | viability, T/C (second compound 0.3 µM, first compound 10 µM) 93.2% | viability, T/C (second compound 0.949 µM, first compound 0.0316 µM) 101% | viability, T/C (second compound 0.949 µM, first compound 0.1 µM) 103% | viability, T/C (second compound 0.949 µM, first compound 0.316 µM) 110% | viability, T/C (second compound 0.949 µM, first compound 1 µM) 102% | viability, T/C (second compound 0.949 µM, first compound 3.16 µM) 111% | viability, T/C (second compound 0.949 µM, first compound 10 µM) 101% | viability, T/C (second compound 3 µM, first compound 0.0316 µM) 116% | viability, T/C (second compound 3 µM, first compound 0.1 µM) 117% | viability, T/C (second compound 3 µM, first compound 0.316 µM) 107% | viability, T/C (second compound 3 µM, first compound 1 µM) 126% | viability, T/C (second compound 3 µM, first compound 3.16 µM) 121% | viability, T/C (second compound 3 µM, first compound 10 µM) 114%
> 10 µM: IC50 (second compound 0.00949 µM) | IC50 (second compound 0.03 µM) | IC50 (second compound 0.0949 µM) | IC50 (second compound 0.3 µM) | IC50 (second compound 0.949 µM) | IC50 (second compound 3 µM)
